# Measurements reported in publication PMC8151276, “An Integrated Approach toward NanoBRET Tracers for Analysis of GPCR Ligand Engagement” (Molecules, 2021).
# Tests used:
# Type in all cases: binding
# PTGDR = target: T1, PTGDR (Homo sapiens, UniProt Q13258); experiment: NanoBRET screen HiBiT-PTGDR in HEK293; details: PTGDR
# T1 construct: purchased Promega (in-house HiBiT-GPCR construct library, NanoBRET)
# T1 sequence (Q13258 1-359): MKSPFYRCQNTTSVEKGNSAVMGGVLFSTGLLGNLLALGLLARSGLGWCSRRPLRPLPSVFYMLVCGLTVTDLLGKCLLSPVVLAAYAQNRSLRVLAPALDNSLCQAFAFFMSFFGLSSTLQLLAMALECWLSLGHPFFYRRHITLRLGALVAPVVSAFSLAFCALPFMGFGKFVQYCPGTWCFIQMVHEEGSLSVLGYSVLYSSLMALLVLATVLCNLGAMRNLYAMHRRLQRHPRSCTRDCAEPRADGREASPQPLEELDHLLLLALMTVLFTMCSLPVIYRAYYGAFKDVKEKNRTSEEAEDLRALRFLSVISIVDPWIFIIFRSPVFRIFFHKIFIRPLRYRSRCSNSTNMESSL
# Description: (§1) Each tracer candidate was screened across the entire library of HiBiT-GPCR constructs using NanoBRET as the detection modality. As depicted in Figure 4A, the specificity of interactions was evaluated through decrease in BRET due to competitive displacement of a bound tracer by excess parental compound. Each tracer was analyzed for binding to each HiBiT-GPCR fusion in the absence and in the presence of competing parental compound. Briefly, HEK293 cells were transfected with HiBiT-GPCR constructs diluted into promoterless DNA to reduce expression and maximize translocation to the cell surface. Each tracer candidate was then screened at concentrations of 1 μM and 0.1 μM across cells expressing these fusions. Cells were treated for 1.5 h with tracer either alone or in the presence of 20 μM competing parental compound (i.e., control). BRET was measured upon addition of purified LgBiT and subsequent complementation with HiBiT genetically fused to a GPCR. The specificity of interactions was assessed through a decrease in BRET signal due to competitive displacement of the bound tracer. To further gauge the robustness of these interactions, the fold response over the control (i.e., BRETtracer/BRETcontrol) was calculated. We chose a 1.5-fold response, which translates to ≥7-fold signal over noise as the minimal threshold required to score an interaction as positive. […]. Below we highlight the screening results obtained for our exemplary fluorescent tracers based on Clozapine, Amitriptyline and AZD1283.
# (§2) HiBiT-GPCR DNA constructs were diluted in 10 mM Tris pH 8 to a final concentration of 0.01 μg/μL, arrayed in 96-well plates and stored at −20 °C. For transfection, HEK293 cells were suspended in Opti-MEM (without phenol red) supplemented with 2% fetal bovine serum (Seradigm) and 100 units/mL penicillin–streptomycin (Gibco) at a final concentration of 220,000 cells/mL and dispensed into white 96-well plates at 90 μL/well. Subsequent transfections and screens were carried using an Agilent Bravo Automated Liquid Handling Platform. First, the 96-well HiBiT DNA arrays were diluted 25-fold in Opti-MEM (without serum or phenol red) to a final concentration of 0.0004 μg/μL and 20 μL of the diluted DNAs were transferred into new 96-well plates. Next, promoterless carrier DNA (1 μg/μL) was diluted 25-fold (0.04 μg/μL) and then dispensed into the diluted arrays at 20 μL/well. Following brief mixing, Viafect transfection reagent (Promega) diluted 16-fold into Opti-MEM was dispensed into the plates at 40 μL/well. After mixing by pipetting, plates were incubated for 10 min on the pipetting station deck. The DNA-transfection reagent complexes were then added to plates containing cells. To facilitate the screen, 10 μL of DNA-transfection reagent complexes were added in duplicates to the top 4 and bottom 4 rows, resulting in two identical 48-well arrays per plate. Plates with transfected cells were incubated for 18–20 h at 37 °C/5% CO2. A screen of each tracer across the entire library using two different concentrations requires duplicate plates of transfected cells. Depending on the number of tracers being screened, transfections can be scaled up using the same ratios. The next day, for each tracer, four 20× screening solutions in tracer dilution buffer (Promega) were prepared: two duplicates at final concentration of 20 μM and two duplicates at a final concentration of 2 μM. A competing unmodified compound was added to one of each duplicate at a final concentration of 400 μM. The four resulting solutions were diluted 4-fold in Opti-MEM without serum or phenol red to generate 5× solutions (5 µM and 0.5 µM tracer +/− 100 μM competing compound). To screen the library, a BioTek MultiFlo FX liquid dispenser was used to dispense 22.5 µL of tracer solution to the top 4 rows and 22.5 µL tracer + competing compound solution to the 4 bottom rows. Plates were briefly mixed on an orbital shaker and incubated for 1.5 h at room temperature. […]
# ADORA1 = target: T2, ADORA1 (Homo sapiens, UniProt P30542); experiment: NanoBRET screen HiBiT-ADORA1 in HEK293; details: ADORA1
# T2 construct: purchased Promega (in-house HiBiT-GPCR construct library, NanoBRET)
# T2 sequence (P30542 1-326): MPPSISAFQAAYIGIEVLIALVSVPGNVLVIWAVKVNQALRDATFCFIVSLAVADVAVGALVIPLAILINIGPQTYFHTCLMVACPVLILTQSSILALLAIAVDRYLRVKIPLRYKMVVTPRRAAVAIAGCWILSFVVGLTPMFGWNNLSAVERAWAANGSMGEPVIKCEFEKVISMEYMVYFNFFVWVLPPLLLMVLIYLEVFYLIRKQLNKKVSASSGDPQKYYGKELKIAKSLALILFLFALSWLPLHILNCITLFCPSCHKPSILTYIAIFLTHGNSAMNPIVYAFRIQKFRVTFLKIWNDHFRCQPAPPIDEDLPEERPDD
# Description: as §1, §2
# BRS3 = target: T3, BRS3 (Homo sapiens, UniProt P32247); experiment: NanoBRET screen HiBiT-BRS3 in HEK293; details: BRS3
# T3 construct: purchased Promega (in-house HiBiT-GPCR construct library, NanoBRET)
# T3 sequence (P32247 1-399): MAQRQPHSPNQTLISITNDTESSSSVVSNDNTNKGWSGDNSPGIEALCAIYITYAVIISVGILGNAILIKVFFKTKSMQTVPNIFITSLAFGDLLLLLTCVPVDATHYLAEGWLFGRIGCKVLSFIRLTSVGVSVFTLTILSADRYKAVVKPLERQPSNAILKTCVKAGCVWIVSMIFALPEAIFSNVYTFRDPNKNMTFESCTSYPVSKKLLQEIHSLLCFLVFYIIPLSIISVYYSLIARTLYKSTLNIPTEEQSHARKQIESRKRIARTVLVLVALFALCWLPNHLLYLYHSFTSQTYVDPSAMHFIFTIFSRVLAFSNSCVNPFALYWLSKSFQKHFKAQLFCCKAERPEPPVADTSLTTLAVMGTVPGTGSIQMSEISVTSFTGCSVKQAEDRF
# Description: as §1, §2
SMILES,NanoBRET Fold Response (PTGDR; 0.1μM tracer),NanoBRET Fold Response (PTGDR; 1μM tracer),NanoBRET Fold Response (ADORA1; 0.1μM tracer),NanoBRET Fold Response (ADORA1; 1μM tracer),NanoBRET Fold Response (BRS3; 0.1μM tracer),NanoBRET Fold Response (BRS3; 1μM tracer),NanoBRET Fold Response (PTGDR; tracer 0.1μM),NanoBRET Fold Response (PTGDR; tracer 1μM),NanoBRET Fold Response (ADORA1; tracer 0.1μM),NanoBRET Fold Response (ADORA1; tracer 1μM),NanoBRET Fold Response (BRS3; tracer 0.1μM),NanoBRET Fold Response (BRS3; tracer 1μM)
O=C(CCOCCOCCOCCOCCNC(=O)CCc1ccc2n1[B-](F)(F)[N+]1=C(c3ccc[nH]3)C=CC1=C2)NCCCN1CCN(C2=Nc3cc(Cl)ccc3Nc3ccccc32)CC1 [Clozapine-a-2-NB590],1.10,0.99,1.00,1.01,1.09,1.15,,,,,,
CN1CCN(C2=Nc3cc(Cl)ccc3Nc3ccc(CNC(=O)CCOCCOCCOCCOCCNC(=O)CCc4ccc5n4[B-](F)(F)[N+]4=C(c6ccc[nH]6)C=CC4=C5)cc32)CC1 [Clozapine-b-2-NB590],1.10,1.01,0.99,0.97,1.01,1.02,,,,,,
CN1CCN(C2=Nc3cc(Cl)ccc3N(CC(=O)NCCOCCOCCOCCOCCNC(=O)CCc3ccc4n3[B-](F)(F)[N+]3=C(c5ccc[nH]5)C=CC3=C4)c3ccccc32)CC1 [Clozapine-c-2-NB590],1.04,1.07,1.00,0.87,0.93,1.07,,,,,,
O=C(CCOCCOCCOCCOCCNC(=O)CCc1ccc2n1[B-](F)(F)[N+]1=C(c3ccc[nH]3)C=CC1=C2)NCCCN1CCN(C2=Nc3ccccc3Oc3ccc(Cl)cc32)CC1 [Loxapine-a-2-NB590],,,,,,,0.93,0.98,1.13,1.04,0.99,1.20
COc1ccccc1N1CCN(CCCCN2C(=O)c3ccc(CNC(=O)CCOCCOCCOCCOCCNC(=O)CCc4ccc5n4[B-](F)(F)[N+]4=C(c6ccc[nH]6)C=CC4=C5)cc3C2=O)CC1 [NAN-190-2-NB590],,,,,,,0.97,1.01,1.10,0.92,1.04,0.97
COc1ccccc1N1CCN(CCCCN2C(=O)c3ccc(CNC(=O)CCOCCNC(=O)c4ccc(CNC(=O)CCc5ccc6n5[B-](F)(F)[N+]5=C(c7ccc[nH]7)C=CC5=C6)cc4)cc3C2=O)CC1 [NAN-190-3-NB590],,,,,,,0.96,0.98,1.07,0.89,0.95,1.02
O=C(CCc1ccc2n1[B-](F)(F)[N+]1=C(c3ccc[nH]3)C=CC1=C2)NCc1ccc(C(=O)NCCOCCC(=O)N[C@@H]2CC[C@@]3(O)[C@H]4Cc5ccc(O)c6c5[C@@]3(CCN4CC3CC3)[C@H]2O6)cc1 [Naltrexone-3-NB590],,,,,,,0.85,0.97,0.84,1.23,1.05,0.94
